Organism: Rattus norvegicus
Assay: Open TG-GATES - Regimen: Daily Repeat
Format: toxicity, organism-based, Sprague-Dawley
Design: regimen Daily Repeat, gender Male, age 6 weeks
Conditions: in vivo, po, 0 mg/kg, route gavage, dose level Control; for APTT / Bas / Eos / Fbg / Hb / Ht / Lym / MCH / MCHC / MCV / Mono / Neu / PT / Plat / RBC / Ret / WBC: tissue Blood; for KIDNEY_L / KIDNEY_R / KIDNEY_TOTAL: tissue Kidney; for LIVER: tissue Liver; for A/G / ALP / ALT / AST / BUN / CRE / Ca / Cl / DBIL / GLC / IP / K / LDH / Na / PL / RALB / TBIL / TC / TG / TP / gamma-GTP: tissue Plasma

`O=C(O)COc1nn(Cc2ccccc2)c2ccccc12` [BENDAZAC] was tested, and the TERMINAL_BW (72 h, time 3 day) was 229.2 g, the APTT (72 h, time 3 day) was 17.5 s and the Bas (72 h, time 3 day) was 0%. The Eos (72 h, time 3 day) was 1.2%, the Fbg (72 h, time 3 day) was 223.2 mg/dL and the Hb (72 h, time 3 day) was 14.2 g/dL. It also gave a Ht (72 h, time 3 day) of 42.6%, a Lym (72 h, time 3 day) of 77.2% and an MCH (72 h, time 3 day) of 21.4 pg. The MCHC (72 h, time 3 day) was 33.3%, the MCV (72 h, time 3 day) was 64.4 fL and the Mono (72 h, time 3 day) was 8.2%. It also gave a Neu (72 h, time 3 day) of 13.8%, a PT (72 h, time 3 day) of 11.6 s and a Plat (72 h, time 3 day) of 120.1 x10_4/uL. For the same compound, the RBC (72 h, time 3 day) was 661.6 x10_4/ul, the Ret (72 h, time 3 day) was 6.5% and the WBC (72 h, time 3 day) was 93.7 x10_2/uL. For the same compound, the KIDNEY_L (72 h, time 3 day) was 1 g, the KIDNEY_R (72 h, time 3 day) was 1 g and the KIDNEY_TOTAL (72 h, time 3 day) was 2 g. The LIVER (72 h, time 3 day) was 11.2 g, the A/G (72 h, time 3 day) was 2.1 and the ALP (72 h, time 3 day) was 1059.4 IU/L. The ALT (72 h, time 3 day) was 41.4 IU/L, the AST (72 h, time 3 day) was 68.6 IU/L and the BUN (72 h, time 3 day) was 16.6 mg/dL. The CRE (72 h, time 3 day) was 0.5 mg/dL, the Ca (72 h, time 3 day) was 10.9 mg/dL and the Cl (72 h, time 3 day) was 103.4 meq/L. The DBIL (72 h, time 3 day) was 0.022 mg/dL, the GLC (72 h, time 3 day) was 206.8 mg/dL and the IP (72 h, time 3 day) was 7.7 mg/dL. The K (72 h, time 3 day) was 4.7 meq/L, the LDH (72 h, time 3 day) was 101.4 IU/L and the Na (72 h, time 3 day) was 139.8 meq/L. The PL (72 h, time 3 day) was 162.8 mg/dL, the RALB (72 h, time 3 day) was 3.9 g/dL and the TBIL (72 h, time 3 day) was 0.3 mg/dL. For the same compound, the TC (72 h, time 3 day) was 78.2 mg/dL, the TG (72 h, time 3 day) was 127.8 mg/dL and the TP (72 h, time 3 day) was 5.7 g/dL. It also gave a gamma-GTP (72 h, time 3 day) of 1.2 IU/L, a TERMINAL_BW ([…], time 7 day) of 264.6 g and a TERMINAL_BW ([…], time 14 day) of 318.4 g. The TERMINAL_BW ([…], time 28 day) was 399.8 g, the APTT ([…], time 7 day) was 16.9 s and the Bas ([…], time 7 day) was 0%. The Eos ([…], time 7 day) was 0.8%, the Fbg ([…], time 7 day) was 228.6 mg/dL and the Hb ([…], time 7 day) was 14.1 g/dL. It also gave a Ht ([…], time 7 day) of 41.4%, a Lym ([…], time 7 day) of 80.8% and an MCH ([…], time 7 day) of 21.5 pg. For the same compound, the MCHC ([…], time 7 day) was 34.1%, the MCV ([…], time 7 day) was 63.2 fL and the Mono ([…], time 7 day) was 6%. It also gave a Neu ([…], time 7 day) of 12.6%, a PT ([…], time 7 day) of 11.5 s and a Plat ([…], time 7 day) of 128.1 x10_4/uL. It also gave an RBC ([…], time 7 day) of 657 x10_4/ul, a Ret ([…], time 7 day) of 5.1% and a WBC ([…], time 7 day) of 96.5 x10_2/uL. The APTT ([…], time 14 day) was 17.2 s, the Bas ([…], time 14 day) was 0% and the Eos ([…], time 14 day) was 0.8%. It also gave a Fbg ([…], time 14 day) of 236 mg/dL, a Hb ([…], time 14 day) of 14.5 g/dL and a Ht ([…], time 14 day) of 43%. For the same compound, the Lym ([…], time 14 day) was 80.4%, the MCH ([…], time 14 day) was 21.2 pg and the MCHC ([…], time 14 day) was 33.8%. For the same compound, the MCV ([…], time 14 day) was 62.8 fL, the Mono ([…], time 14 day) was 7% and the Neu ([…], time 14 day) was 11.8%. The PT ([…], time 14 day) was 11 s, the Plat ([…], time 14 day) was 122.8 x10_4/uL and the RBC ([…], time 14 day) was 684.4 x10_4/ul. It also gave a Ret ([…], time 14 day) of 4.3%, a WBC ([…], time 14 day) of 120.8 x10_2/uL and an APTT ([…], time 28 day) of 17.8 s. It also gave a Bas ([…], time 28 day) of 0%, an Eos ([…], time 28 day) of 1% and a Fbg ([…], time 28 day) of 219 mg/dL. It also gave a Hb ([…], time 28 day) of 15.5 g/dL, a Ht ([…], time 28 day) of 45.9% and a Lym ([…], time 28 day) of 83.6%. The MCH ([…], time 28 day) was 19.8 pg, the MCHC ([…], time 28 day) was 33.7% and the MCV ([…], time 28 day) was 58.8 fL. The Mono ([…], time 28 day) was 4.2%, the Neu ([…], time 28 day) was 11.4% and the PT ([…], time 28 day) was 11.7 s. It also gave a Plat ([…], time 28 day) of 115.9 x10_4/uL, an RBC ([…], time 28 day) of 779.8 x10_4/ul and a Ret ([…], time 28 day) of 3.5%. The WBC ([…], time 28 day) was 117.2 x10_2/uL, the KIDNEY_L ([…], time 7 day) was 1.1 g and the KIDNEY_R ([…], time 7 day) was 1.2 g. It also gave a KIDNEY_TOTAL ([…], time 7 day) of 2.3 g, a KIDNEY_L ([…], time 14 day) of 1.3 g and a KIDNEY_R ([…], time 14 day) of 1.3 g. It also gave a KIDNEY_TOTAL ([…], time 14 day) of 2.6 g, a KIDNEY_L ([…], time 28 day) of 1.4 g and a KIDNEY_R ([…], time 28 day) of 1.4 g. It also gave a KIDNEY_TOTAL ([…], time 28 day) of 2.8 g, an LIVER ([…], time 7 day) of 13.2 g and an LIVER ([…], time 14 day) of 15.1 g. It also gave an LIVER ([…], time 28 day) of 16.2 g, an A/G ([…], time 7 day) of 2 and an ALP ([…], time 7 day) of 804.6 IU/L. The ALT ([…], time 7 day) was 30 IU/L, the AST ([…], time 7 day) was 60.8 IU/L and the BUN ([…], time 7 day) was 19.6 mg/dL. The CRE ([…], time 7 day) was 0.5 mg/dL, the Ca ([…], time 7 day) was 11.3 mg/dL and the Cl ([…], time 7 day) was 103.6 meq/L. For the same compound, the DBIL ([…], time 7 day) was 0.012 mg/dL, the GLC ([…], time 7 day) was 222.6 mg/dL and the IP ([…], time 7 day) was 8 mg/dL. It also gave a K ([…], time 7 day) of 4.8 meq/L, an LDH ([…], time 7 day) of 84.8 IU/L and a Na ([…], time 7 day) of 141.2 meq/L. It also gave a PL ([…], time 7 day) of 146.2 mg/dL, an RALB ([…], time 7 day) of 3.9 g/dL and a TBIL ([…], time 7 day) of 0.3 mg/dL. For the same compound, the TC ([…], time 7 day) was 70 mg/dL, the TG ([…], time 7 day) was 111 mg/dL and the TP ([…], time 7 day) was 5.8 g/dL. For the same compound, the gamma-GTP ([…], time 7 day) was 1 IU/L, the A/G ([…], time 14 day) was 1.6 and the ALP ([…], time 14 day) was 749.8 IU/L. For the same compound, the ALT ([…], time 14 day) was 32 IU/L, the AST ([…], time 14 day) was 61.2 IU/L and the BUN ([…], time 14 day) was 18.2 mg/dL. The CRE ([…], time 14 day) was 0.5 mg/dL, the Ca ([…], time 14 day) was 10.4 mg/dL and the Cl ([…], time 14 day) was 105.4 meq/L. For the same compound, the DBIL ([…], time 14 day) was 0.006 mg/dL, the GLC ([…], time 14 day) was 197.2 mg/dL and the IP ([…], time 14 day) was 7.1 mg/dL. For the same compound, the K ([…], time 14 day) was 4.7 meq/L, the LDH ([…], time 14 day) was 102.2 IU/L and the Na ([…], time 14 day) was 141.2 meq/L. For the same compound, the PL ([…], time 14 day) was 158 mg/dL, the RALB ([…], time 14 day) was 3.8 g/dL and the TBIL ([…], time 14 day) was 0.3 mg/dL. The TC ([…], time 14 day) was 74.8 mg/dL, the TG ([…], time 14 day) was 153.2 mg/dL and the TP ([…], time 14 day) was 6.2 g/dL. For the same compound, the gamma-GTP ([…], time 14 day) was 2.4 IU/L, the A/G ([…], time 28 day) was 1.4 and the ALP ([…], time 28 day) was 590.2 IU/L. The ALT ([…], time 28 day) was 33.2 IU/L, the AST ([…], time 28 day) was 64.4 IU/L and the BUN ([…], time 28 day) was 20 mg/dL. It also gave a CRE ([…], time 28 day) of 0.6 mg/dL, a Ca ([…], time 28 day) of 10 mg/dL and a Cl ([…], time 28 day) of 104.8 meq/L. For the same compound, the DBIL ([…], time 28 day) was 0.01 mg/dL, the GLC ([…], time 28 day) was 189.8 mg/dL and the IP ([…], time 28 day) was 6.4 mg/dL. The K ([…], time 28 day) was 4.4 meq/L, the LDH ([…], time 28 day) was 71.4 IU/L and the Na ([…], time 28 day) was 140.4 meq/L. For the same compound, the PL ([…], time 28 day) was 142.8 mg/dL, the RALB ([…], time 28 day) was 3.6 g/dL and the TBIL ([…], time 28 day) was 0.3 mg/dL. It also gave a TC ([…], time 28 day) of 71.2 mg/dL, a TG ([…], time 28 day) of 130 mg/dL and a TP ([…], time 28 day) of 6.2 g/dL. For the same compound, the gamma-GTP ([…], time 28 day) was 1.8 IU/L.
